What was measured:
Assay in all cases: Leishmanicidal activity, MTT viability assay, promastigotes
Format in all cases: cell-based
Conditions in all cases: 50 μg/mL; average ± standard deviation
[1] = system: stationary phase promastigotes of L. amazonensis
Description: (§1) In a cell culture plate of 96 wells (Nunc, Nunclon®), 4×10^5 promastigote and amastigote-like forms of species Leishmania amazonensis, L. major and L. chagasi were incubated with 25 to 200 μg/mL of the aqueous extract of the fungus in RPMI-PR medium for a final volume of 100 μL, for 24 h at 25° C. Then it was added 50 uL of MTT reagent (Thiazoly Blue Tetrazolium Bromide 98%; in stock concentration of 5 mg/mL) and the plate was incubated for 4 hours at 25° C. The cells were analyzed on a microscope to verify the formation of formazan crystals. Shortly after it was added 60 μL of a SDS 10%/HCL 0.1 M solution to solubilize formazan crystals and the plate was incubated for 18 h. The absorbance readings were then performed using a spectrophotometer at a wavelength of 570 nanometers (nm) (see FIGS. 1 and 2; Table 1 and 2).
(§2) Through the absorbance readings collected in experiments, Tables 1 and 2 were generated to represent the percentage of leishmanicidal activity of aqueous extract against the three Leishmania species tested in two manners. The calculation of the percentage of death of the parasites was based in the formula below, using the absorbance readings: […]
(§3) The experiment was conducted by the cellular viability protocol by impregnating the MTT reagent and the concentration of 50 μg/mL of the aqueous extract of the fungus and the purified fractions were used. […]

[2] = system: stationary phase promastigotes of L. chagasi
Description: as §1, §2, §3

[3] = system: stationary phase promastigotes of L. major
Description: as §1, §2, §3

C[C@@H]1[C@H](O)[C@@H](C)/C=C/C=C/C=C/C=C/C=C/C=C/C=C/[C@H](O[C@@H]2O[C@H](C)[C@@H](O)[C@H](N)[C@@H]2O)C[C@@H]2O[C@](O)(C[C@@H](O)C[C@@H](O)[C@H](O)CC[C@@H](O)C[C@@H](O)CC(=O)O[C@H]1C)C[C@H](O)[C@H]2C(=O)O [Amphotericin B, amphotericin B]
Average percentage of death of stationary phase promastigote forms, L. amazonensis [1]: 40.06 ± 1.17%
Average percentage of death of stationary phase promastigote forms, L. chagasi [2]: 35.12 ± 2.61%
Average percentage of death of stationary phase promastigote forms, L. major [3]: 42.51 ± 2.00%

Source: patent US20130142819A1, “LEISHMANICIDAL FORMULATION AND ITS USE” (priority 2010, published 2013)
